In ChEMBL document CHEMBL1134098, “Bioisosteric determinants for subtype selectivity of ligands for heteromeric GABA(A) receptors” (Bioorg Med Chem Lett, 2001):

Legend:
[1] = target: T1, GABA-A receptor; alpha-1/beta-3/gamma-2 (Homo sapiens, UniProt P14867+P18507+P28472); test: Antagonistic potency against human Gamma-aminobutyric acid A receptor alpha-1-beta-3-gamma-2 expressed in Xenopus oocytes at 1 mM; assay type: functional, cell-based, Oocyte
T1 sequence (P14867 whole entry): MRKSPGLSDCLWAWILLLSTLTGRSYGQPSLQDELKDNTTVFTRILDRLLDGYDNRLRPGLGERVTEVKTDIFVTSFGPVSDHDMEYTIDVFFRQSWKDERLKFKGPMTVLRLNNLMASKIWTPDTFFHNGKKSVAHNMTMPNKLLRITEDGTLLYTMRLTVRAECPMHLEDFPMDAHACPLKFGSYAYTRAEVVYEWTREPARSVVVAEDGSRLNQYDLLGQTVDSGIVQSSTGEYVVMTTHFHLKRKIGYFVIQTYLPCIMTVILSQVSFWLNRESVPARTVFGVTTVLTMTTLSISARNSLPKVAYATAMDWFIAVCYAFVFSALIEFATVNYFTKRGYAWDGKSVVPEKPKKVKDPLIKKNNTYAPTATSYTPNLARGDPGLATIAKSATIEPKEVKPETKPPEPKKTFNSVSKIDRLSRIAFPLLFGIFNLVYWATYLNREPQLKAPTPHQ
T1 sequence (P18507 whole entry): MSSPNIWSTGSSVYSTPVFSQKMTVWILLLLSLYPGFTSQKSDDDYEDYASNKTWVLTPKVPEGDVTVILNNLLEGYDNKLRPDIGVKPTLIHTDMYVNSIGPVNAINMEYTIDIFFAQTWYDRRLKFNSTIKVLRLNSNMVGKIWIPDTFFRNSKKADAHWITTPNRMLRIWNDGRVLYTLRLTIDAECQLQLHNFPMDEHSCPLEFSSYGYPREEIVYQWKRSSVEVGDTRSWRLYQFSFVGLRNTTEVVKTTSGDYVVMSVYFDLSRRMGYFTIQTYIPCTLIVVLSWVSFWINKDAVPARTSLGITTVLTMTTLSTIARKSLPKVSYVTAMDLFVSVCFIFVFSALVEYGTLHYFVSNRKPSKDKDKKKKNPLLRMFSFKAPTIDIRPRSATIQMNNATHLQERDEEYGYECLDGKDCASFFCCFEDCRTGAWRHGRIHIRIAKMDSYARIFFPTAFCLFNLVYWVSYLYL
T1 sequence (P28472 whole entry): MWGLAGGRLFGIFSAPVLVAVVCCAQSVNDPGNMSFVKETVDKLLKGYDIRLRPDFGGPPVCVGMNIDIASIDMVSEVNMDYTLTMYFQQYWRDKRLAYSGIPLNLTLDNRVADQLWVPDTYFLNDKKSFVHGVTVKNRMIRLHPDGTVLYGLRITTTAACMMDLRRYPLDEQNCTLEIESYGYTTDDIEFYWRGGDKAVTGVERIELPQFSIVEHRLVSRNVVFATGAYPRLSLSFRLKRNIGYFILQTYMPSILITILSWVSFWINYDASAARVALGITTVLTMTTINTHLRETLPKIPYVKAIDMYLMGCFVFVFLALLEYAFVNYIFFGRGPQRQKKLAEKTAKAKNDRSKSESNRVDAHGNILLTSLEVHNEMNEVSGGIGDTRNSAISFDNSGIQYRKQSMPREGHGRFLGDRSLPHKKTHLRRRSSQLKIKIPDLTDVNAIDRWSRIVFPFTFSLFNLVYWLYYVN

[2] = target: T2, GABA-A receptor; alpha-5/beta-3/gamma-2 (Homo sapiens, UniProt P18507+P28472+P31644); test: Antagonistic potency against human Gamma-aminobutyric acid A receptor alpha-5-beta-3-gamma-2 expressed in Xenopus oocytes at 1 mM; assay type: functional, cell-based, Oocyte
T2 sequence (P18507 whole entry): T1 sequence (P18507 whole entry)
T2 sequence (P28472 whole entry): T1 sequence (P28472 whole entry)
T2 sequence (P31644 whole entry): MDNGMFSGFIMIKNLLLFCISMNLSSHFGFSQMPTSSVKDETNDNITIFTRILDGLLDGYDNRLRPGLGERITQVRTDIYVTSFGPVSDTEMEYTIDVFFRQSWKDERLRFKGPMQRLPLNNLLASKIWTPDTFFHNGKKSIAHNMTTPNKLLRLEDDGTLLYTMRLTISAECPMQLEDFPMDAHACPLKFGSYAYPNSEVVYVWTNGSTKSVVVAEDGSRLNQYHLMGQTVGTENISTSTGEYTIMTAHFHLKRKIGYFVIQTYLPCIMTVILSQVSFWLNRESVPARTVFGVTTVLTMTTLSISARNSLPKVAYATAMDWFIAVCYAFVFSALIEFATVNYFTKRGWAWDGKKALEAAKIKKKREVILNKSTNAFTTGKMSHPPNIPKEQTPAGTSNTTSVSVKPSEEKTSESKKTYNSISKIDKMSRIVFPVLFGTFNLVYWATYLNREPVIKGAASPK

[3] = target: T3, GABA-A receptor; alpha-2/beta-3/gamma-2 (Homo sapiens, UniProt P18507+P28472+P47869); test: Antagonistic potency against human Gamma-aminobutyric acid A receptor alpha-2-beta-3-gamma-2 expressed in Xenopus oocytes at 1 mM; assay type: functional, cell-based, Oocyte
T3 sequence (P18507 whole entry): T1 sequence (P18507 whole entry)
T3 sequence (P28472 whole entry): T1 sequence (P28472 whole entry)
T3 sequence (P47869 whole entry): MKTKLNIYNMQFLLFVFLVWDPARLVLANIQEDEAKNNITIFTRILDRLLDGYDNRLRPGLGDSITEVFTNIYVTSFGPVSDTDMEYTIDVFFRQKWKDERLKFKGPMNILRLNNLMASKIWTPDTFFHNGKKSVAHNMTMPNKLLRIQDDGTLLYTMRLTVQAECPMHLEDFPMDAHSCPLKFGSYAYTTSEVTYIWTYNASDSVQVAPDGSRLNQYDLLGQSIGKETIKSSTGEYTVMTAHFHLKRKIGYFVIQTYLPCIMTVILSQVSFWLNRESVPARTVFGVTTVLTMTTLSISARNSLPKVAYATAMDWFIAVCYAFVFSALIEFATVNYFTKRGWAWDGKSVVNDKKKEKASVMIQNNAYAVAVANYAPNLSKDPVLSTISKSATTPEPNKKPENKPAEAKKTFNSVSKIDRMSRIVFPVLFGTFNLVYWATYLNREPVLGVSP

[4] = target: T4, GABA-A receptor; alpha-3/beta-3/gamma-2 (Homo sapiens, UniProt P18507+P28472+P34903); test: Antagonistic potency against human Gamma-aminobutyric acid A receptor alpha-3-beta-3-gamma-2 expressed in Xenopus oocytes at 1 mM; assay type: functional, cell-based, Oocyte
T4 sequence (P18507 whole entry): T1 sequence (P18507 whole entry)
T4 sequence (P28472 whole entry): T1 sequence (P28472 whole entry)
T4 sequence (P34903 whole entry): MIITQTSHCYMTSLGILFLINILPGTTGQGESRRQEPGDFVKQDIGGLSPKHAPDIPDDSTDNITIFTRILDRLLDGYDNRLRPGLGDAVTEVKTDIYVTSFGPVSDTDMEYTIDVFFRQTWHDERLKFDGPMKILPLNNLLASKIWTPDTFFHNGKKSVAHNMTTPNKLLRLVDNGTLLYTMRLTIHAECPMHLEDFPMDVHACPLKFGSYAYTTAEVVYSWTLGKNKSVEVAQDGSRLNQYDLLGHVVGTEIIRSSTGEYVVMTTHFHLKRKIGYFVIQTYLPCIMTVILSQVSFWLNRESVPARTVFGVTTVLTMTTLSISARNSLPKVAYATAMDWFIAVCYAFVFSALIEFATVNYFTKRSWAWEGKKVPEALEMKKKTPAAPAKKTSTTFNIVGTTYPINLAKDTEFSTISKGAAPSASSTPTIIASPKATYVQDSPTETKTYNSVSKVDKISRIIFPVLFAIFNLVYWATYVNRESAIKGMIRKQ

[5] = target: T5, GABA A receptor alpha-4/beta-3/gamma-2 (Homo sapiens, UniProt P18507+P28472+P48169); test: Antagonistic potency against human […] Gamma-aminobutyric acid A receptor alpha-4-beta-3-gamma-2; assay type: functional
T5 sequence (P48169 whole entry, one chain of several): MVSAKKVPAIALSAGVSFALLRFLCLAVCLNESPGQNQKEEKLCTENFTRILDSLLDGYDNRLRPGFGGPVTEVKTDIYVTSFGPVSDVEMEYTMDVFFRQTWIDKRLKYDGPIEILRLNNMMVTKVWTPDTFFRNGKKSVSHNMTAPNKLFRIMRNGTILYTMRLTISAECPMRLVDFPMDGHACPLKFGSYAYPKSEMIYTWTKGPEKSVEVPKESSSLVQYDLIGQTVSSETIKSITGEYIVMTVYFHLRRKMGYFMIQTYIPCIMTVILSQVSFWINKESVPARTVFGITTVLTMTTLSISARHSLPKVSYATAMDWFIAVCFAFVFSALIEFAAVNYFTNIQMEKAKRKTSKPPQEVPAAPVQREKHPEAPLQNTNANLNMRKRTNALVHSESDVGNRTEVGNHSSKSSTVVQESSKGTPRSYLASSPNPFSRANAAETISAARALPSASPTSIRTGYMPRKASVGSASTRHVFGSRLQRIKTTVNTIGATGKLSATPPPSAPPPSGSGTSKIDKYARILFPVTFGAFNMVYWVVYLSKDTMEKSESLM

[6] = target: T6, GABA-A receptor; alpha-6/beta-3/gamma-2 (Homo sapiens, UniProt P18507+P28472+Q16445); test: Antagonistic potency against human Gamma-aminobutyric acid A receptor alpha-6-beta-3-gamma-2 expressed in Xenopus oocytes at 1 mM; assay type: functional, cell-based, Oocyte
T6 sequence (Q16445 whole entry, one chain of several): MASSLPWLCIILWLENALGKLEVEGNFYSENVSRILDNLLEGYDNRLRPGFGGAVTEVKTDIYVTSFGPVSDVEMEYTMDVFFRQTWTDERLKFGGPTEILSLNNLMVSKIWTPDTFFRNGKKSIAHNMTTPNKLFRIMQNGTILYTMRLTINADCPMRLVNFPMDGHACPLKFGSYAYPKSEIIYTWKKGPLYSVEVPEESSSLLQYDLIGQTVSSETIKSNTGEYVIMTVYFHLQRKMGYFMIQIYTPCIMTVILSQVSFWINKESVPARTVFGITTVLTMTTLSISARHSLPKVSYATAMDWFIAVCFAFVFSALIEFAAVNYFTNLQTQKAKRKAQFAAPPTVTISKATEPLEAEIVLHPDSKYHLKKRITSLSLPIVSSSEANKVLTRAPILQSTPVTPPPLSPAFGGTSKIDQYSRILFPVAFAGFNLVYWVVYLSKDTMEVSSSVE

[7] = target: T1, GABA-A receptor; alpha-1/beta-3/gamma-2; test: Effective agonist dose for human Gamma-aminobutyric acid A receptor alpha-1-beta-3-gamma-2 expressed in Xenopus oocytes; assay type: functional, cell-based, Oocyte
[8] = target: T2, GABA-A receptor; alpha-5/beta-3/gamma-2; test: Effective agonist dose for human Gamma-aminobutyric acid A receptor alpha-5-beta-3-gamma-2 expressed in Xenopus oocytes; assay type: functional, cell-based, Oocyte
[9] = target: GABA-A receptor; alpha-1/beta-3/gamma-2 (Homo sapiens) (UniProt P14867+P18507+P28472); test: Maximal response relative to Gamma-aminobutyric acid A against human Gamma-aminobutyric-acid A receptor alpha-1-beta-3-gamma-2 expressed in Xenopus oocytes; assay type: functional, cell-based; settings: Oocyte
[10] = target: GABA-A receptor; alpha-3/beta-3/gamma-2 (Homo sapiens) (UniProt P18507+P28472+P34903); test: Maximal response relative to Gamma-aminobutyric acid A against human Gamma-aminobutyric-acid A receptor alpha-3-beta-3-gamma-2 expressed in Xenopus oocytes; assay type: functional, cell-based; settings: Oocyte
[11] = target: T5, GABA A receptor alpha-4/beta-3/gamma-2; test: Effective agonist dose for human Gamma-aminobutyric acid A receptor alpha-4-beta-3-gamma-2; assay type: functional
[12] = target: T6, GABA-A receptor; alpha-6/beta-3/gamma-2; test: Effective agonist dose for human Gamma-aminobutyric acid A receptor alpha-6-beta-3-gamma-2; assay type: functional
[13] = target: T3, GABA-A receptor; alpha-2/beta-3/gamma-2; test: Agonist activity on human Gamma-aminobutyric acid A receptor alpha-2-beta-3-gamma-2 expressed in Xenopus oocytes; assay type: functional, cell-based, Oocyte
[14] = target: T4, GABA-A receptor; alpha-3/beta-3/gamma-2; test: Agonist activity on human Gamma-aminobutyric acid A receptor alpha-3-beta-3-gamma-2 expressed in Xenopus oocytes; assay type: functional, cell-based, Oocyte
[15] = target: T5, GABA A receptor alpha-4/beta-3/gamma-2; test: Maximal response relative to Gamma-aminobutyric acid A against human Gamma-aminobutyric-acid A receptor alpha-4-beta-3-gamma-2 expressed in Xenopus oocytes; assay type: functional, cell-based; settings: Oocyte
[16] = target: GABA-A receptor; alpha-2/beta-3/gamma-2 (Homo sapiens) (UniProt P18507+P28472+P47869); test: Maximal response relative to Gamma-aminobutyric acid A against human Gamma-aminobutyric-acid A receptor alpha-2-beta-3-gamma-2 expressed in Xenopus oocytes; assay type: functional, cell-based; settings: Oocyte
[17] = target: T6, GABA-A receptor; alpha-6/beta-3/gamma-2; test: Maximal response relative to Gamma-aminobutyric acid A against human Gamma-aminobutyric-acid A receptor alpha-6-beta-3-gamma-2 expressed in Xenopus oocytes; assay type: functional, cell-based; settings: Oocyte
[18] = target: GABA-A receptor; alpha-5/beta-3/gamma-2 (Homo sapiens) (UniProt P18507+P28472+P31644); test: Maximal response relative to Gamma-aminobutyric acid A against human Gamma-aminobutyric-acid A receptor alpha-5-beta-3-gamma-2 expressed in Xenopus oocytes; assay type: functional, cell-based; settings: Oocyte
[19] = target: T4, GABA-A receptor; alpha-3/beta-3/gamma-2; test: Effective dose for agonist activity on activity on human Gamma-aminobutyric acid A receptor alpha-3-beta-3-gamma-2 expressed in Xenopus oocytes; assay type: functional, cell-based, Oocyte
[20] = target: T3, GABA-A receptor; alpha-2/beta-3/gamma-2; test: Effective dose for agonist activity on human Gamma-aminobutyric acid A receptor alpha-2-beta-3-gamma-2 in Xenopus oocytes; assay type: functional, cell-based, Oocyte

EC50 [19] [µM] | SMILES | Ki [1] [µM] | Ki [2] [µM] | Ki [3] [µM] | Ki [4] [µM] | Ki [5] [µM] | Ki [6] [µM] | EC50 [7] [µM] | EC50 [8] [µM] | Max [9] | Max [10] | EC50 [11] [µM] | EC50 [12] [µM] | EC50 [13] [µM] | EC50 [14] [µM] | Max [15] | Max [16] | Max [17] | Max [18] | EC50 [20] [µM]
 | O=[PH](O)C1(O)CCNCC1 | 1400 | 1900 | 1500 | 4900 | 2100 | 3000 |  |  |  |  |  |  |  |  |  |  |  |  | 
 | O=C(O)Cc1c[nH]cn1 [IMIDAZOLE ACETIC ACID] |  |  |  |  |  |  | 310 | 420 | 24 | 54 | 340 | 460 | 600 | 300 | 27 | 72 | 25 | 56 | 
 | NCCC[Se](=O)O |  |  |  |  |  |  | 1400 | 1900 | 30 | 33 | 2100 | 3000 | 1500 | 4900 | 16 | 47 | 51 | 58 | 
 | O=S(=O)(O)C1CCNCC1 |  |  |  |  |  |  | 40 | 20 | 21 | 75 | 200 | 20 | 26 | 65 | 7.2 | 96 | 15 | 92 | 
 | NCCCC(=O)O |  |  |  |  |  |  |  |  | 100 | 100 |  |  |  |  | 100 | 100 | 100 | 100 | 
 | O=C(O)C1=CCNCC1 [ISOGUVACINE] |  |  |  |  |  |  | 160 | 75 | 88 | 69 | 180 | 20 | 50 | 55 | 88 | 88 | 98 | 94 | 
 | O=[PH](O)C1CCNCC1 |  |  |  |  |  |  | 270 | 260 | 5 | 29 | 140 | 140 | 280 | 160 | 0 | 17 | 35 | 17 | 
370 | O=C(O)C1CCNCC1 [ISONIPECOTIC ACID] |  |  |  |  |  |  | 620 | 690 | 46 | 46 | 300 | 160 | 420 |  | 104 | 53 | 83 | 57 | 
 | O=P(O)(O)C1CCNCC1 | 3300 | 2800 | 2100 | 3800 | 3100 | 4800 |  |  |  |  |  |  |  |  |  |  |  |  | 
 | O=[Se](O)C1CCNCC1 |  |  |  |  |  |  | 200 | 420 | 3 | 28 | 160 | 240 |  | 180 | 0 | 2 | 13 | 3 | 170
 | CP(=O)(O)C1CCNCC1 | 310 | 420 | 600 | 300 | 340 | 460 |  |  |  |  |  |  |  |  |  |  |  |  | 
